Reference: article PMC11243625, “Synthesis, Docking, and Machine Learning Studies of Some Novel Quinolinesulfonamides–Triazole Hybrids with Anticancer Activity” (Molecules, 2024)
“Also recorded” adds a separate entry of the source. Like-named read-outs stand apart in the source and are kept apart here.

Columns and labels:
A549 = test: WST-1 test, lung cancer cells; type: cell-based, human; conditions: for IC50: read-out: IC50 A-549
Procedure: (§1) Hybrids 4–14 were tested as anticancer agents against four human cancer cell lines: colon cancer (Caco-2), glioblastoma (SNB-19), lung cancer (A549), ovarian cancer (SKOV-3), and normal human dermal fibroblasts (NHDFs). Cisplatin was used as the reference substance. The results are presented as the compound concentration of the compound (μM) that inhibits the growth of 50% of cancer cells compared to control cells (IC50). A negative value (Neg) means that the compound concentration of the tested hybrids was greater than 500 µM. […] It is generated only by a weak van der Waals interaction with Arg84. […] There is also a visible difference in activity depending on the type of group present on the triazole ring (substituent C in Figure 2). The results obtained indicate that hybrids containing aromatic systems as a C substituent in their structure, especially another quinoline molecule (compounds 9 and 10), have high activity.
(§2) Cell cultures were performed in 96-well plates (Nunc Thermo Fisher Scientific, Waltham, MA, USA). Cells were seeded at 5 × 10^4/well and incubated for 24 h (at 37 °C, 5% CO2, and constant humidity). The medium was replaced with fresh with the addition of test compounds at a concentration of 0.1–100 µg/mL of DMSO and incubated again for another 72 h. After this time, the WST-1 test (Roche Molecular Biochemicals, Mannheim, Germany) was performed to assess the metabolic activity of the cells. Absorbance was measured at λ = 450 nm using a UVM340 microplate reader (Biogenet, Józefów, Poland). Results are expressed as the mean value of at least three independent experiments performed in triplicate.

Caco-2 = test: WST-1 test, colon cancer cells; type: cell-based, human
Procedure: Hybrids 4–14 were tested as anticancer agents against four human cancer cell lines: colon cancer (Caco-2), glioblastoma (SNB-19), lung cancer (A549), ovarian cancer (SKOV-3), and normal human dermal fibroblasts (NHDFs).
as §2

SKOV-3 = test: WST-1 test, ovarian cancer cells; type: cell-based, human
Procedure: as §1, §2

SNB-19 = test: WST-1 test, glioblastoma cells; type: cell-based, human
Procedure: as §1, §2

NHDF = test: WST-1 test, normal human dermal fibroblasts; type: cell-based; conditions: 72 h, WST-1, normal cells
Procedure: as §1, §2

| SMILES | IC50 (A549; Homo sapiens, A549, 72 h) | IC50 (Caco-2; 72 h) | IC50 (Caco-2; Homo sapiens, Caco-2, 72 h) | IC50 (SKOV-3; Homo sapiens, SK-OV-3, 72 h) | IC50 (SNB-19; 72 h) | IC50 (SNB-19; Homo sapiens, SNB-19, 72 h) | melting point | IC50 NHDF (NHDF) | IC50 (NHDF; Homo sapiens, NHDF) | IC50 A-549 (A549; 72 h) | IC50 (A549; 72 h) | IC50 (SKOV-3; 72 h) | IC50 (NHDF) |
| --- | --- | --- | --- | --- | --- | --- | --- | --- | --- | --- | --- | --- | --- |
| CN(Cc1cn(-c2ccnc3c(Br)cccc23)nn1)S(=O)(=O)c1cccc2cccnc12 [Compound 10b, 8-N-Methyl-N-{[1-(8-bromoquinolin-4-yl)-1H-1,2,3-triazol-4-yl]methyl}quinolinesulfonamide] | 1.77 µM | 0.3 µM | ≥ 0.3 µM | 24.7 µM | 0.3 µM | ≤ 0.4 µM | 206 to 207 °C | have activity against normal cells | 26.2 µM | – | – | – | – |
| O=S(=O)(NCc1cn(-c2ccnc3c(Br)cccc23)nn1)c1cccc2cccnc12 [Compound 10a, 8-N-{[1-(8-Bromoquinolin-4-yl)-1H-1,2,3-triazol-4-yl]methyl}quinolinesulfonamide] | 113 µM | – | 9.69 µM | 94.5 µM | – | 37.4 µM | 194 to 195 °C | – | > 500 µM | – | – | – | – |
| CN(Cc1cn(-c2ccnc3cc(Cl)ccc23)nn1)S(=O)(=O)c1cccc2cccnc12 [Compound 9b, 8-N-Methyl-N-{[1-(7-chloroquinolin-4-yl)-1H-1,2,3-triazol-4-yl]methyl}quinolinesulfonamide] | 0.4 µM | – | 0.26 µM | 4.16 µM | 0.38 µM | ≤ 0.4 µM | 189 to 190 °C | lack of cytotoxicity; also recorded: no activity towards NHDF | > 500 µM | nanomolar concentration range | – | – | – |
| O=S(=O)(NCc1cn(CSc2ccccc2)nn1)c1cccc2cccnc12 [Compound 8a, 8-N-[(1-Methylthiophenyl-1H-1,2,3-triazol-4-yl)methyl]quinolinesulfonamide] | 3.69 µM | – | 14.3 µM | 115 µM | – | 72.4 µM | 106 to 107 °C | – | 40.6 µM | – | – | – | – |
| CN(Cc1cn(Cc2ccc(F)cc2)nn1)S(=O)(=O)c1cccc2cccnc12 [Compound 6b, 8-N-Methyl-N-{[1-(4-fluorobenzyl)-1H-1,2,3-triazol-4-yl]methyl}quinolinesulfonamide] | > 500 µM | – | 19.3 µM | > 500 µM | – | 156 µM | 85 to 86 °C | – | > 500 µM | – | – | – | – |
| N.N.[Cl][Pt][Cl] [Cisplatin, reference compound] | – | – | – | – | 2.93 µM | – | – | – | – | – | 453 µM | 41.6 µM | > 500 µM |
| CCOC(=O)CCn1cc(CN(C)S(=O)(=O)c2cccc3cccnc23)nn1 [Compound 13b, Ethyl 3-{[4-(N-methylsulfamoyl-8-quinolyl)methyl]-1H-1,2,3-triazol-1-yl}propanoate] | > 500 µM | – | 85.2 µM | 88.2 µM | – | 138 µM | – | – | > 500 µM | – | – | – | – |
| O=S(=O)(NCc1cn(Cc2ccc(F)cc2)nn1)c1cccc2cccnc12 [Compound 6a, 8-N-{[1-(4-Fluorobenzyl)-1H-1,2,3-triazol-4-yl]methyl}quinolinesulfonamide] | > 500 µM | – | 27.5 µM | > 500 µM | – | > 500 µM | 118 to 119 °C | – | > 500 µM | – | – | – | – |
| CN(Cc1cn(Cc2ccc([N+](=O)[O-])cc2)nn1)S(=O)(=O)c1cccc2cccnc12 [Compound 7b, 8-N-Methyl-N-{[1-(4-nitrobenzyl)-1H-1,2,3-triazol-4-yl]methyl}quinolinesulfonamide] | > 500 µM | – | 2.47 µM | > 500 µM | – | 0.41 µM | 103 to 105 °C | – | > 500 µM | – | – | – | – |
| O=[N+]([O-])c1ccc(Cn2cc(CNS(=O)(=O)c3cccc4cccnc34)nn2)cc1 [Compound 7a, 8-N-{[1-(4-Nitrobenzyl)-1H-1,2,3-triazol-4-yl]methyl}quinolinesulfonamide] | 36.1 µM | – | 0.31 µM | 16.9 µM | – | 0.83 µM | 135 to 136 °C | – | 169 µM | – | – | – | – |
| Cc1cn(C2CC(n3cc(CN(C)S(=O)(=O)c4cccc5cccnc45)nn3)C(CO)O2)c(=O)[nH]c1=O [Compound 11b, 8-N-Methyl-N-({1-[(2R, 3S, 5S)-2-(hydroxymethyl)-5-(5-methyl-2,4-dioxo-3,4-dihydropyrimidin-1(2H)-yl)tertrahydrofuran-3-yl]-1H-1,2,3-triazol-4-yl}methyl)quinolinesulfonamide] | 1.29 µM | – | 0.48 µM | 7.16 µM | – | 0.59 µM | 176 to 178 °C | have activity against normal cells | 98.3 µM | – | – | – | – |
| CN(Cc1cn(Cc2ccccc2)nn1)S(=O)(=O)c1cccc2cccnc12 [Compound 4b, 8-N-Methyl-N-[(1-benzyl-1H-1,2,3-triazol-4-yl)methyl]quinolinesulfonamide] | 7.72 µM | – | 0.4 µM | 66.2 µM | – | 1.18 µM | 103 to 105 °C | – | 191 µM | – | – | – | – |
| C=C(Cn1cc(CNS(=O)(=O)c2cccc3cccnc23)nn1)[C@@H]1CC[C@]2(COC(C)=O)CC[C@]3(C)[C@H](CC[C@@H]4[C@@]5(C)CC[C@H](OC(C)=O)C(C)(C)[C@@H]5CC[C@]43C)[C@@H]12 [Compound 14a, 8-N-({1-[3β, 28-Diacetoxylup-20(29)-en-30-yl]-1H-1,2,3-triazol-4-yl}methyl)-quinolinesulfonamide] | > 500 µM | – | > 500 µM | > 500 µM | – | 101 µM | 148 to 149 °C | – | > 500 µM | – | – | – | – |
| CN(Cc1cn(CSc2ccccc2)nn1)S(=O)(=O)c1cccc2cccnc12 [Compound 8b, 8-N-Methyl-N-[(1-methylthiophenyl-1H-1,2,3-triazol-4-yl)methyl]quinolinesulfonamide] | > 500 µM | – | 0.34 µM | > 500 µM | 0.35 µM | ≤ 0.4 µM | 118 to 119 °C | – | > 500 µM | – | – | – | – |
| Cc1cn(C2CC(n3cc(CNS(=O)(=O)c4cccc5cccnc45)nn3)C(CO)O2)c(=O)[nH]c1=O [Compound 11a, 8-N-({1-[(2R, 3S, 5S)-2-(Hydroxymethyl)-5-(5-methyl-2,4-dioxo-3,4-dihydropyrimidin-1(2H)-yl)tertrahydrofuran-3-yl]-1H-1,2,3-triazol-4-yl}methyl)quinolinesulfonamide] | 18.1 µM | – | 0.36 µM | 143 µM | – | 129 µM | 149 to 150 °C | – | 195 µM | – | – | – | – |
| N#Cc1ccc(Cn2cc(CNS(=O)(=O)c3cccc4cccnc34)nn2)cc1 [Compound 5a, 8-N-{[1-(4-Cyanobenzyl)-1H-1,2,3-triazol-4-yl]methyl}quinolinesulfonamide] | > 500 µM | – | 2.21 µM | > 500 µM | – | > 500 µM | 110 to 111 °C | – | > 500 µM | – | – | – | – |
| O=S(=O)(NCc1cn(Cc2ccccc2)nn1)c1cccc2cccnc12 [Compound 4a, 8-N-[(1-Benzyl-1H-1,2,3-triazol-4-yl)methyl]quinolinesulfonamide] | > 500 µM | – | 26.4 µM | > 500 µM | – | > 500 µM | 125 to 126 °C | – | > 500 µM | – | – | – | – |
